What was measured:
ACSL3 protein = assay: Western blotting of ACSL3 protein from excised tumors; type: in vivo, Human; settings: nude mice, tail vein 6 mg/kg once per week for 4 weeks, FIG. 12
Procedure: (§1) To 7-week-old male nude mice (n=10), 3×10^6 prostate cancer cells (LNCaP) were subcutaneously injected at the right flank. A tumor size was monitored by caliper measurement every 3 days. When the tumor size reaches […], the PI polyamide (1) or the PI polyamide (control) dissolved in dH2O was injected from a tail vein at 6 mg/kg bodyweight (PI polyamide (1): n=4, PI polyamide (control): n=6).
(§2) The injection was performed once per week for 4 weeks and the tumor size was measured every week. After one week from the last injection, the nude mice were dissected to excise the tumors.
FIG. 12 depicts a result of western blotting with an ACSL3 antibody of protein extracted using a lysis buffer (NP40 buffer) from the excised tumors (two individuals #1 and #2) (upper portion of FIG. 12; lower portion indicates expression of β-actin protein).

[1] = test system: Oct1 oligo DNA (Oct1 gene binding sequence, SEQ ID NO:1); assay: DNA Binding Assay (gel electrophoretic pattern); settings: 5 μl of 0.2 mM PI polyamide mixed with 15 μl hairpin double strand DNA, 37° C. 1 hour
Procedure: For each of the PI polyamides (1) to (3) (three types) generated in 5, a DNA Binding Assay of the following steps 1) and 2) was performed to confirm binding to the Oct1 gene binding sequence (SEQ ID NO:1). The PI polyamide (control) was also examined in terms of the presence/absence of binding to the Oct1 gene binding sequence (SEQ ID NO:1).
1) Molecules (50-base) were created that have Oct1 oligo DNA including the same base sequence as the Oct1 gene binding sequence (SEQ ID NO:1) labelled with FITC, and the oligo at a final concentration of 1 μM was heated to 100° C. in an annealing buffer (20 mM Tris-HCl, 2 mM EDTA, 200 mM NaCl). The oligo was cooled for 2 hours in stages to 30° C. As a result, the Oct1 oligo DNA underwent self-annealing and forms a double strand in a hairpin shape.
2) 15 μl of solution containing the hairpin-shaped double strand DNA of 1) was mixed with 5 μl of each of the 0.2 mM PI polyamides (1) to (3) and PI polyamide (control) and incubated at 37° C. for 1 hour to acquire a mixed solution.
3) The mixed solution of 2) was electrophoresed in 5-20% acrylamide gel (TBE buffer) and an electrophoretic pattern was monitored with LAS 4000 (manufactured by GE Healthcare Japan) to determine the presence/absence of binding from a difference in the electrophoretic pattern.

ACSL3 gene = assay: Examination of expression of ACSL3 gene by RT-PCR in LNCaP cells; type: cell-based, Human
Procedure: The expression of ACSL3 Gene was examined by RT-PCR in a cell into which each of the PI polyamides (1) to (3) was introduced. For comparison, the same examination was conducted for a cell into which the PI polyamide (control) was introduced.
The LNCaP cells were cultured for 3 days in the Phenol-Red-free medium of 3. (2) to which each of the PI polyamides was added at 5 μM. Subsequently, DHT (100 nM) of 4. was added into the medium to apply androgen stimulation.
After RNA is extracted from the cells by using Isogen (Nippon Gene) in accordance with a manual, cDNA was prepared by using PrimeScript (registered trademark) Reverse Transcriptase (manufactured by TaKaRa).
Each of the cDNAs prepared in 1) was used as a template DNA to examine with primers listed in Table 4 the presence/absence of expression of a fusion gene or an ERG gene in the prostate cancer cell into which each of the PI polyamides was introduced. In this RT-qPCR, Power SYBR (registered trademark) Green PCR Master Mix (manufactured by Applied Biosystems) was used.

LNCaP cells [2] = assay: Evaluation of proliferation ability by MTS assay; type: cell-based, Human
Procedure: After treatment with the PI polyamide (1) or the PI polyamide (control) for comparison, the proliferation ability of these cells were examined by MTS assay.
In particular, the LNCaP cells were seeded on a 96-well plate to 5×10^3 cells in total and cultured for 3 days in the Phenol-Red-free medium of 3. (2) to which each of the PI polyamides was added at 1 μM or 5 μM. Subsequently, DHT (100 nM) of 4. was added into the medium to apply androgen stimulation. After the stimulation, each of the cells were cultured for 24, 48, or 96 hours.
After the specified stimulation time, 10 μl of an MTS reagent (Cell Titer 96 AQueous One Solution Cell Proliferation Assay, Promega, Madison Wis.) was added to the cells before incubation for 1 hour. Subsequently, the absorbance (490 nm) of the cells was measured and the numbers of the cultured cells were examined to evaluate the cell proliferation ability.

LNCaP cells [3] = assay: Evaluation of cell migration ability (cell migration assay); type: cell-based, Human; settings: 5 μM, 3 days, compared to PI polyamide (control), FIGS. 9 and 10
Procedure: After culturing cells into which the PI polyamide (1) was introduced and cells into which the PI polyamide (control) was introduced for comparison, the migration ability of the cells was examined by a cell migration assay using a cell culture insert and a 8.0 μm pore size PET filter (manufactured by Becton Dickinson).
In particular, after fibronectin (manufactured by Sigma) diluted with PBS to 10 μg/ml was allowed to act on a culture dish for 30 minutes to form a lower filter, 700 μl of the Phenol-Red-containing RPMI 1640 medium of 3. (1) was added to a lower chamber.
The LNCaP cells were cultured for 3 days in the Phenol-Red-containing medium of 3. (1) to which each of the PI polyamides was added at 5 μM and divided into units of 5×10^4 cells, and each unit of cells was suspended in 300 μl of the Phenol-Red-containing medium of 3. (1) and added to the upper chamber. After the cells were cultured at 37° C. under the condition of 5% CO2, the filter was peeled off.
The cells on the lower filter were fixed by methanol for 30 minutes and then incubated for 30 seconds in Gimsa's stain solution (manufactured by Muto Pure Chemicals). Subsequently, the cells were observed by a microscope of 200 magnifications to count the number of cells, thereby evaluating the cell migration ability.

[4] = test system: ACSL3 transcriptional regulatory region (AR response region); assay: Luciferase assay of AR activity in ACSL3 transcriptional regulatory region; type: cell-based, Human; settings: LNCaP, 1 μM or 5 μM, DHT 100 nM, compared to same amount of PI polyamide (control), FIG. 6
Procedure: (§3) About 1 kb of AR binding site (ARBS) located 63 kb upstream of the ACSL3 transcription start point was extracted (SEQ ID NO:10) and insert into a luciferase vector (pGL3 promoter vector: Promega, Madison, Wis.). This vector was used for transfection of a prostate cancer cell (LNCaP) cultured for about 60 hours in the Phenol-Red-free medium of 3. (2) by using FuGENE (registered trademark) HD (Roche Applied Science) as a transection reagent in accordance with the protocol thereof.
(§4) After about 12 hours, androgen stimulation using 100 nM of DHT and introduction of the PI polyamide (1) or PI polyamide (control) (1 μM or 5 μM) were performed and followed by a luciferase assay. This test was conducted by using prostate cancer cells (LNCaP) incorporated with a PSA promoter region (SEQ ID NO:22) known to have AR response activity as a positive control for the luciferase vector.

[5] = test system: prostate cancer cells (LNCaP) tumor; assay: Effect of the PI polyamide on a tumor in nude mice injected with LNCaP; type: in vivo; settings: tail vein 6 mg/kg once per week for 4 weeks, compared to PI polyamide (control), FIG. 11
Procedure: The effect of the PI polyamide on a tumor was confirmed.
as §1, §2

PSA promoter region = assay: Luciferase assay of AR activity in PSA promoter region (positive control); type: cell-based, Human; settings: LNCaP, compared to same amount of PI polyamide (control), FIG. 7
Procedure: as §3, §4

[6] = 5 μM, 3 days, androgen stimulation DHT 100 nM, FIG. 4
[7] = concentration and time not stated

| Molecule | expression of the ACSL3 protein in excised tumors (ACSL3 protein) | binding to the Oct1 oligo DNA (presence/absence) [1] | expression of the ACSL3 gene (ACSL3 gene; [6]) | cell proliferation (LNCaP cells [2]; [7]) | cell migration ability (invasive potential) (LNCaP cells [3]) | AR activity in the ACSL3 transcriptional regulatory region (AR response region) [4] | formation of tumor [5] | cell proliferation (LNCaP cells [2]; 5 μM, after 48 hours of incubation, compared to PI polyamide (control) 5 μM, FIG. 8) | cell proliferation (LNCaP cells [2]; 5 μM, after 96 hours of incubation, FIG. 8) | AR activity in the PSA promoter region (PSA promoter region) | expression of the ACSL3 gene (ACSL3 gene; 5 μM (1 μM or 5 μM tested), androgen stimulation, FIG. 5) |
| --- | --- | --- | --- | --- | --- | --- | --- | --- | --- | --- | --- |
| AcPyPyPyImβImγPyβPyImβImβDp [PI polyamide (control), reference compound] | expressed | no binding occurs | not inhibited | – | – | – | – | – | – | – | – |
| CC(=O)Nc1cn(C)c(C(=O)Nc2cc(C(=O)NCCC(=O)Nc3cc(C(=O)Nc4cc(C(=O)Nc5cc(C(=O)NCCCC(=O)Nc6cc(C(=O)Nc7cc(C(=O)Nc8cc(C(=O)NCCC(=O)Nc9cn(C)c(C(=O)Nc%10cc(C(=O)NCCC(=O)NCCCN(C)C)n(C)c%10)n9)n(C)c8)n(C)c7)n(C)c6)n(C)c5)n(C)c4)n(C)c3)n(C)c2)n1 [PI polyamide (2), AcImPyβPyPyPyγPyPyPyβImPyβDp] | – | – | inhibited | suppressed in the same way | suppressed in the same way | – | – | – | – | – | – |
| CC(=O)Nc1cc(C(=O)Nc2cc(C(=O)NCCC(=O)Nc3cn(C)c(C(=O)Nc4cc(C(=O)Nc5cc(C(=O)NCCCC(=O)Nc6cc(C(=O)Nc7cn(C)c(C(=O)Nc8cc(C(=O)NCCC(=O)Nc9cn(C)c(C(=O)Nc%10cc(C(=O)NCCC(=O)NCCCN(C)C)n(C)c%10)n9)n(C)c8)n7)n(C)c6)n(C)c5)n(C)c4)n3)n(C)c2)n(C)c1 [PI polyamide (1), AcPyPyβImPyPyγPyImPyβImPyβDp] | remarkably inhibited | – | inhibited | – | significantly inhibited | significantly reduces | remarkably inhibited | significantly inhibited | further significantly inhibited | no significant difference | particularly inhibited |
| CC(=O)Nc1cc(C(=O)Nc2cc(C(=O)NCCC(=O)Nc3cc(C(=O)Nc4cc(C(=O)Nc5cc(C(=O)NCCCC(=O)Nc6cn(C)c(C(=O)Nc7cc(C(=O)Nc8cc(C(=O)NCCC(=O)Nc9cc(C(=O)Nc%10cc(C(=O)NCCC(=O)NCCCN(C)C)n(C)c%10)n(C)c9)n(C)c8)n(C)c7)n6)n(C)c5)n(C)c4)n(C)c3)n(C)c2)n(C)c1 [PI polyamide (3), AcPyPyβPyPyPyγImPyPyβPyPyβDp] | – | – | inhibited | suppressed in the same way | suppressed in the same way | – | – | – | – | – | – |

— US9522978B2, “PI polyamide” (NIHON UNIVERSITY, priority 2013, dated 2016)
